Tests used:
human recombinant BRAF = target: T1, human recombinant BRAF (Homo sapiens, UniProt P15056); experiment: BRAF^WT Inhibition Assay (TR-FRET); type: biochemical
T1 construct: purchased BPS Bioscience 40065
Procedure: (§1) Activity of human recombinant BRAF were assessed in vitro using time-resolved fluorescence resonance energy transfer (TR-FRET) assay. The assay was performed according to the kit instructions. Briefly, the BRAF enzyme (BPS Bioscience, cat #40065) was diluted to 0.027 ng/μL using the 1× kinase buffer A (Life Tech, cat #PV6135, 5× dilution with H2O); the Fluorescein labeled-MAP2K1 (Life Tech, Cat #PV4812) was diluted to 0.5 μM; ATP (Life Tech, cat #PV3227) was diluted to 20 μM; 2.54, of each diluted reagent was added to a 384-well plate (PerkinElmer, ProxiPlate-384 Plus, 6008280) and mixed together; 2.54, serial diluted compound were added into the mixture. 104, 400-fold diluted LanthaScreen Tb-pMAP2K1 (pSer217/221) antibody (Life Tech, cat #PV4817) was then added to each kinase reaction. The reactions were incubated at Room Temperature for 1 hour. The plate was then read on PHERAstar FSX using 340/490/520 module. Inhibition data were calculated by comparison to vehicle control wells for 0% inhibition and non-stimulated control wells for 100% inhibition. Dose response curves were then generated to determine the concentration required to suppress 50% of enzymatic response (IC50) as derived by non-linear regression analysis using GraphPad Prism.

human recombinant cRAF = human recombinant cRAF (Homo sapiens, UniProt P04049); experiment: cRAF Inhibition Assay (TR-FRET); type: biochemical
Chain of human recombinant cRAF (P04049 whole entry Y340D/Y341D, form open): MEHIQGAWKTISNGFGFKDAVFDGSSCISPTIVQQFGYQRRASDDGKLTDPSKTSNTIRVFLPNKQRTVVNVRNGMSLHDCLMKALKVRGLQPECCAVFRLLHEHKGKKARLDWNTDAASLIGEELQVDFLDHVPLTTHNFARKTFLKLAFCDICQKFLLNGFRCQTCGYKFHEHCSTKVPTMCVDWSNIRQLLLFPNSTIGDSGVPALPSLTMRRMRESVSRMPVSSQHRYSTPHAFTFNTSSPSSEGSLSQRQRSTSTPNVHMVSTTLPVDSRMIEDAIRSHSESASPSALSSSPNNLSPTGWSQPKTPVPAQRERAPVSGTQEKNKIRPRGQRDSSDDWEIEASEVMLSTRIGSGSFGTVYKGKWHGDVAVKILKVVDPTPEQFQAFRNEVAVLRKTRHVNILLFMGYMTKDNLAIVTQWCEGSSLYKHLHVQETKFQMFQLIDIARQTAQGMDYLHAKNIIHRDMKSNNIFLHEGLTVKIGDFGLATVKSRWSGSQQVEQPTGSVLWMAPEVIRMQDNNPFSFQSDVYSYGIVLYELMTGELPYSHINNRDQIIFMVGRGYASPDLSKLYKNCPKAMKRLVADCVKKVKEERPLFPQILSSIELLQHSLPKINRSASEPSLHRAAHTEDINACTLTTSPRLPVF
Procedure: as §1, with “cRAF” for “BRAF”, “#40008)” for “#40065)”

[1] = target: T2, human recombinant V600E mutant BRAF (Homo sapiens, UniProt P15056, V600E); experiment: BRAF^V600E Inhibition Assay (TR-FRET); type: biochemical
T2 construct: purchased BPS Bioscience 40533
T2 sequence (P15056 whole entry V600E): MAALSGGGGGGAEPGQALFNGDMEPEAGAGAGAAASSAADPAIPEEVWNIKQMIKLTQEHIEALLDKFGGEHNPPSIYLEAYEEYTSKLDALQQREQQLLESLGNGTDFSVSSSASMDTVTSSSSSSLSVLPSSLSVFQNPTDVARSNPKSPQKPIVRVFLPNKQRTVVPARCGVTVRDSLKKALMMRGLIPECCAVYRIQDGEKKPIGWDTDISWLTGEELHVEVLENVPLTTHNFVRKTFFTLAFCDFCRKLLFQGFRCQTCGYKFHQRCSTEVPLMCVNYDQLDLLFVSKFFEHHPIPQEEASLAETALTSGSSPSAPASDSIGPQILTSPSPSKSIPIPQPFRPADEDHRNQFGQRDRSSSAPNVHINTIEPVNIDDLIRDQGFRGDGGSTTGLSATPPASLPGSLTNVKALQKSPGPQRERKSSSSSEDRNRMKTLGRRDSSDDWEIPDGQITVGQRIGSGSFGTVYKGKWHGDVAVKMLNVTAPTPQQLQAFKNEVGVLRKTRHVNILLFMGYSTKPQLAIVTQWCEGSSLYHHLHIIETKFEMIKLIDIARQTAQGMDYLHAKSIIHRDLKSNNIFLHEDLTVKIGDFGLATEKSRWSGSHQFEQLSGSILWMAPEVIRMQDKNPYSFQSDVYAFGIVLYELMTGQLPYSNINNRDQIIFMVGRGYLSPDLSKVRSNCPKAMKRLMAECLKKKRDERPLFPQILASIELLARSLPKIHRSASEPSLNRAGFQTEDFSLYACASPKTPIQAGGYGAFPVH
Procedure: Activity of human recombinant V600E mutant BRAF were assessed in vitro using time-resolved fluorescence resonance energy transfer (TR-FRET) assay. The assay was performed according to the kit instructions. Briefly, the V600E mutant BRAF enzyme (BPS Bioscience, cat #40533) was diluted to 0.027 ng/μL using the 1× kinase buffer A (Life Tech, cat #PV6135, 5× dilution with H2O); the Fluorescein labeled-MAP2K1 (Life Tech, Cat #PV4812) was diluted to 0.5 μM; ATP (Life Tech, cat #PV3227) was diluted to 20 μM; 2.5 μl of each diluted reagent was added to a 384-well (PerkinElmer, ProxiPlate-384 Plus, 6008280) plate and mixed together; 2.54, serial diluted compounds were added into the mixture. 104, 400-fold diluted LanthaScreen Tb-pMAP2K1 (pSer217/221) antibody (Life Tech, cat #PV4817) was then added to each kinase reaction. The reactions were incubated at Room Temperature for 1 hour. The plate was then read on PHERAstar FSX using 340/490/520 module. Inhibition data were calculated by comparison to vehicle control wells for 0% inhibition and non-stimulated control wells for 100% inhibition. Dose response curves were then generated to determine the concentration required to suppress 50% of enzymatic response (IC50) as derived by non-linear regression analysis using GraphPad Prism.

[2] = test system: NCI-H358 (KRAS^G12C) non-small cell lung cancer cell; experiment: NCI-H358 Cancer Cell Growth Inhibition Assay (CellTiter-Glo); type: cell-based, human; conditions: for GI50: Homo sapiens, 72 h, NCI-H358 cells, incubated for 3 days, CellTiter-Glo
Procedure: Activity of human NCI-H358 (KRAS^G12C) non-small cell lung cancer cell growth inhibition was assessed in vitro using CellTiter-Glo® Luminescent Cell Viability Assay. The assay was performed according to the kit instructions (Promega, cat #G7570). Briefly, NCI-H358 cells (ATCC, #CRL-5807) were seeded in 96-well plates at a density of 2,500 cells/well in and cells were cultured overnight in a humidified, 5% CO2 cell culture incubator at 37° C. 10 μL serial diluted compounds were added into each cell-culture well and incubated for 3 days. 100 μL CellTiter-Glo® Reagent was added into each well. The reactions were incubated at Room Temperature for 10 minutes, and luminescence signals were recorded on a Tecan Luminescence Plate Reader. Inhibition data were calculated by comparison to vehicle control wells for 0% inhibition and non-stimulated control wells for 100% inhibition. Dose response curves were then generated to determine the concentration required to suppress 50% of cellular growth response (GI50) as derived by non-linear regression analysis using GraphPad Prism.

T1 sequence (P15056 whole entry): as the sequence (P15056 whole entry V600E) above, with E600V counted along it

For Cc1ccc(NC(=O)c2ccc3c(c2)CC3)cc1-c1cc(OCCO)nc(N2CCOCC2)c1 [Example 2, N-(3-(2-(2-hydroxyethoxy)-6-morpholinopyridin-4-yl)-4-methylphenyl)bicyclo[4.2.0]octa-1(6),2,4-triene-3-carboxamide], the IC50 (human recombinant BRAF) was 38.5 nM, the IC50 (human recombinant cRAF) was 7.9 nM and the IC50 [1] was 18 nM.
Cc1ccc(NC(=O)c2ccc3c(c2)C(F)(F)CC3)cc1-c1cc(OCCO)nc(N2CCOCC2)c1 [Example 3, 3,3-difluoro-N-(3-(2-(2-hydroxyethoxy)-6-morpholinopyridin-4-yl)-4-methylphenyl)-2,3-dihydro-1H-indene-5-carboxamide] was tested, and the IC50 (human recombinant BRAF) was 170 nM, the IC50 (human recombinant cRAF) was 27 nM and the IC50 [1] was 88 nM.
Compound Cc1ccc(NC(=O)c2ccc3c(c2)C(F)(F)CO3)cc1-c1cc(OCCO)nc(N2CCOCC2)c1 [Example 4, 3,3-difluoro-N-(3-(2-(2-hydroxyethoxy)-6-morpholinopyridin-4-yl)-4-methylphenyl)-2,3-dihydrobenzofuran-5-carboxamide] has an IC50 (human recombinant BRAF) of 260 nM, an IC50 (human recombinant cRAF) of 51 nM and an IC50 [1] of 96 nM.
With Cc1ccc(NC(=O)c2ccc3c(c2)CCC3(F)F)cc1-c1cc(OCCO)nc(N2CCOCC2)c1 [Example 5, 1,1-difluoro-N-(3-(2-(2-hydroxyethoxy)-6-morpholinopyridin-4-yl)-4-methylphenyl)-2,3-dihydro-1H-indene-5-carboxamide] the IC50 (human recombinant BRAF) was 92 nM, the IC50 (human recombinant cRAF) was 39 nM and the IC50 [1] was 65 nM.
Cc1ccc(NC(=O)c2cnc3c(c2)CCC3(F)F)cc1-c1cc(OCCO)nc(N2CCOCC2)c1 [Example 6, 7,7-difluoro-N-(3-(2-(2-hydroxyethoxy)-6-morpholinopyridin-4-yl)-4-methylphenyl)-6,7-dihydro-5H-cyclopenta[b]pyridine-3-carboxamide] gave an IC50 (human recombinant BRAF) of 26 nM, an IC50 (human recombinant cRAF) of 3.9 nM and an IC50 [1] of 8.4 nM.
Cc1ccc(NC(=O)c2cnc3c(c2)C(F)(F)CC3)cc1-c1cc(OCCO)nc(N2CCOCC2)c1 [Example 7, 5,5-difluoro-N-(3-(2-(2-hydroxyethoxy)-6-morpholinopyridin-4-yl)-4-methylphenyl)-6,7-dihydro-5H-cyclopenta[b]pyridine-3-carboxamide] showed an IC50 (human recombinant BRAF) of 46 nM, an IC50 (human recombinant cRAF) of 10 nM and an IC50 [1] of 18 nM. For the same compound, the “cell growth inhibition in H358 cancer line compared to LXH254” value [2] was “better or similar cell growth inhibition” and the GI50 [2] was 2800 nM.
Cc1ccc(NC(=O)c2ccc3c(c2)OC(C)(C)O3)cc1-c1cc(OCCO)nc(N2CCOCC2)c1 [Example 8, N-(3-(2-(2-hydroxyethoxy)-6-morpholinopyridin-4-yl)-4-methylphenyl)-2,2-dimethylbenzo[d][1,3]dioxole-5-carboxamide] gave an IC50 (human recombinant BRAF) of 140 nM, an IC50 (human recombinant cRAF) of 25 nM and an IC50 [1] of 62 nM. For the same compound, the “cell growth inhibition in H358 cancer line compared to LXH254” value [2] was “better or similar cell growth inhibition” and the GI50 [2] was 220 nM.
Compound Cc1ccc(NC(=O)c2ccc3c(c2)OCO3)cc1-c1cc(OCCO)nc(N2CCOCC2)c1 [Example 9, N-(3-(2-(2-hydroxyethoxy)-6-morpholinopyridin-4-yl)-4-methylphenyl)benzo[d][1,3]dioxole-5-carboxamide] has an IC50 (human recombinant BRAF) of 42 nM, an IC50 (human recombinant cRAF) of 6.7 nM and an IC50 [1] of 18 nM. For the same compound, the “cell growth inhibition in H358 cancer line compared to LXH254” value [2] was “better or similar cell growth inhibition” and the GI50 [2] was 1600 nM.
Compound Cc1ccc(NC(=O)c2cc3c(cn2)OC(F)(F)O3)cc1-c1cc(OCCO)nc(N2CCOCC2)c1 [Example 10, 2,2-difluoro-N-(3-(2-(2-hydroxyethoxy)-6-morpholinopyridin-4-yl)-4-methylphenyl)-[1,3]dioxolo[4,5-c]pyridine-6-carboxamide] has an IC50 (human recombinant BRAF) of 95 nM, an IC50 (human recombinant cRAF) of 25 nM and an IC50 [1] of 55 nM. The “cell growth inhibition in H358 cancer line compared to LXH254” value [2] was “better or similar cell growth inhibition” and the GI50 [2] was 85 nM.
Cc1ncc(NC(=O)c2ccc3c(c2)OC(F)(F)O3)cc1-c1cc(OCCO)nc(N2CCOCC2)c1 [Example 11, 2,2-difluoro-N-(2′-(2-hydroxyethoxy)-2-methyl-6′-morpholino-[3,4′-bipyridin]-5-yl)benzo[d][1,3]dioxole-5-carboxamide] showed an IC50 (human recombinant BRAF) of 70 nM, an IC50 (human recombinant cRAF) of 10 nM and an IC50 [1] of 39 nM.

Source: patent US20220135539A1, “BIARYL AMIDE COMPOUNDS, PREPARATION METHODS AND MEDICAL APPLICATIONS THEREOF” (Eternity Bioscience Inc., priority 2020, published 2022)
